Experimental data taken from publication PMC9994261 (Cell, 2023).
≈ marks a conversion by molar mass, not a printed value. Where two headings read alike, the source gives them in different places.

Assays:
in vitro = in vitro ADME; conditions: human, Caco-2; read-out: Permeability in Caco2 cells (Papp)
Mtb H37Rv = assay: microbe, parasite or virus in culture; assay type: cell-based, Mycobacterium tuberculosis; conditions: Mycobacterium tuberculosis, H37RV; read-out: MIC for Mtb in liquid culture
[1] = assay type: in vitro ADME
[2] = assay type: in vitro ADME, human; conditions: for Metabolic stability in human liver microsomes (% metabolized compound after 20 min): 20 min incubation; for Metabolic stability in human liver microsomes (% metabolized compound after 20 min), (K): in presence of ketoconazole CYP3A inhibitor (K); for Metabolic stability in human liver microsomes (% metabolized compound after 20 min), (Q): in presence of quinidine CYP2D6 inhibitor (Q)
Experimental: The metabolic stability of test compounds was determined as described.[57]^,[58] Incubation and experimental conditions with human hepatic microsomal fractions (purchased from BD Gentest as a pooled batch from 6 donors) were as follows: microsomal proteins, 1 mg/mL; bovine serum albumin, 1 mg/mL; substrate, 5 μM; incubation duration, 20 min; cytochrome P-450 monooxygenases (CYPs) and flavin containing monooxygenases (FMOs) cofactor, 1 mM NADPH. Enzyme activity was stopped with 1 volume of acetonitrile. […] For each test compound and for each microsomal preparation, three incubations were prepared: absolute reference in buffer (without enzyme material, i.e., microsomes); incubation without NADPH cofactor (with microsomal fractions); and incubation with NADPH (with microsomal fractions). For most compounds, biotransformation, as observed in hepatic microsomal fractions in the presence of the NADPH cofactor, consists of oxidative reactions catalyzed by either CYPs or FMOs. In these conditions, the percentage of total metabolism, which corresponds to oxidative metabolism, was determined as follows: [% total metabolism] ≈ [% oxidative metabolism] = [unchanged compound (UC) peak area − NADPH UC peak area + NADPH] × 100%, where NADPH corresponds to the enzyme cofactor for oxidation reactions catalyzed by either CYP or FMO.

[3] = assay type: in vitro ADME; remark: listed apart in the source
in vivo = conditions: male, Swiss, mouse, po; for AUC: 30 mg/kg, oral 30 mg/kg
[4] = assay type: in vitro ADME; remark: listed apart in the source
CYP3A4 = biological target: T1, CYP3A4 (Homo sapiens, UniProt P08684); assay: CYP3A4 reversible inhibition in human liver microsomes; assay type: in vitro ADME
T1 construct: human liver microsomes (purchased from BD Gentest as a pooled batch from 150 donors); tissue BD Gentest Cat#452117; host or cells: pooled human liver microsomes (150 donors)
Experimental: Incubations were performed with 0.1 mg/mL human liver microsomes (purchased from BD Gentest as a pooled batch from 150 donors) in a final incubation volume of 0.25 mL. The incubation medium contained 0.05 M phosphate buffer (pH 7.4) containing an NADPH regenerating system (including 1.3 mM NADP, 3.3 mM glucose 6-phosphate,3.3 mM MgCl2, and 1.0 U/mL glucose 6-phosphate dehydrogenase). Probe CYP3A4 substrates (midazolam at 3 μM and testosterone at 50 μM), were incubated for 10 and 30 min, respectively, with increasing concentrations of GM, MGM or CGM (concentration range: 1 - 30 μM). The reaction was stopped by adding acetonitrile to precipitate the proteins. The incubation mixtures were then centrifuged for 5 min at 10,000 × g, and an aliquot of the supernatant was analyzed using high-performance liquid chromatography coupled to mass spectrometry for the assessment of 1’-hydroxymidazolam and 6β-hydroxytestosterone metabolite formation.

Mtb methylated ribosome = assay: Mtb in vitro translation assay with methylated (erythromycin-treated) ribosome; assay type: biochemical, Mycobacterium tuberculosis; conditions: read-out: Translation inhibition of Mtb methylated ribosome (IC50 μM)
physchem [5] = assay type: physicochemical
physchem [6] = conditions: pH 7.4
[7] = tested on: GFP-expressing Mtb H37Rv in RAW264.7 macrophages; assay: Intramacrophage assay (MIC for Mtb in macrophages); assay type: cell-based, Mycobacterium tuberculosis; conditions: Mycobacterium tuberculosis, H37RV; read-out: MIC for Mtb tuberculosis in macrophages
[8] = pH 2, 50% acetonitrile/water
Mtb ribosome = assay type: biochemical, Mycobacterium tuberculosis; conditions: read-out: Inhibition of Mtb translation (IC50 μM)
[9] = aqueous buffer, PBS pH 7.4, read-out: Solubility: PBS@pH 7.4

T1 sequence (P08684 whole entry): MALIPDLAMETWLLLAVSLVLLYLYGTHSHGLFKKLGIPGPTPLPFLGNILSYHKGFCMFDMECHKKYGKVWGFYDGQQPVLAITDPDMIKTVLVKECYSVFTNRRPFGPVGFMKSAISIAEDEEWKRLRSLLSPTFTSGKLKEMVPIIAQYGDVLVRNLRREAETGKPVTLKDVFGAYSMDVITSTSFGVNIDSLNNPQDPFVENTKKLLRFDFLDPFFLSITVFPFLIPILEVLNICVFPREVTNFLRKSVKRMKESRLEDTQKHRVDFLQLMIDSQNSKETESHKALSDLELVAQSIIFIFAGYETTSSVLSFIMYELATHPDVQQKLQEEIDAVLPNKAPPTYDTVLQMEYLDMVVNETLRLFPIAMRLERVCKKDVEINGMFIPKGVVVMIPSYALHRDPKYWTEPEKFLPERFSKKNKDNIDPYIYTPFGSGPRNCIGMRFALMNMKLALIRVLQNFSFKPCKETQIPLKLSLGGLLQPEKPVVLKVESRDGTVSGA

| Structure (SMILES) | Papp (in vitro) | MIC (Mtb H37Rv) | Metabolic stability in human liver microsomes (% metabolized compound after 20 min) [2] | Metabolic stability in human liver microsomes (% metabolized compound after 20 min), (K) [2] | Metabolic stability in human liver microsomes (% metabolized compound after 20 min), (Q) [2] | Metabolic stability in mouse liver microsomes (% metabolized compound after 20 min) [3] | bioavailability (in vivo) | IC50 (Mtb methylated ribosome) | solubility (physchem [5]; [9]) | MIC [7] | IC50 (Mtb ribosome) | other results |
| --- | --- | --- | --- | --- | --- | --- | --- | --- | --- | --- | --- | --- |
| CO/N=C1\C[C@@H](C)O[C@@H](O[C@@H]2[C@@H](C)[C@H](O[C@H]3C[C@@](C)(O)[C@@H](O)[C@H](C)O3)[C@@H](C)C(=O)O[C@H]([C@@H](C)CO[C@@H]3O[C@H](C)[C@@H](O)[C@@H](OC)[C@H]3OC)[C@H](C)[C@@H](OC(=O)CC(C)C)[C@@H](C)C(=O)[C@@](C)(OC(=O)NCc3ccccc3)C[C@@H]2C)[C@@H]1O [SEQ-416, [(2R,3S,4R,5R,7S,9S,10S,11R,12S,13R)-7-(benzylcarbamoyloxy)-12-[(2R,4R,5S,6S)-4,5-dihydroxy-4,6-dimethyl-tetrahydropyran-2-yl]oxy-2-[(1S)-2-[(2R,3R,4R,5R,6R)-5-hydroxy-3,4-dimethoxy-6-methyl-tetrahydropyran-2-yl]oxy-1-methyl-ethyl]-10-[(2S,3R,4E,6R)-3-hydroxy-4-methoxyimino-6-methyl-tetrahydropyran-2-yl]oxy-3,5,7,9,11,13-hexamethyl-6,14-dioxo-oxacyclotetradec-4-yl] 3-methylbutanoate] | 10.4 ×10⁻⁶ cm/s | 0.15 µM (≈ 0.169 µg/mL) | 40% | 0.5(K) % | /35(Q) % | 25% | 21% | 0.031 µM | 22 µg/mL (≈ 19.5 µM) | 0.63 µM (≈ 0.709 µg/mL) | 0.044 µM | Metabolic degradation/clearance from human liver microsomes [1]: 0.057 mL/h/10^6 hepatocytes; AUC (in vivo; AUC in lung @30 mg/kg, lung): 4800 ng·h/mL; AUC (in vivo; AUC in plasma @30 mg/kg, plasma): 4000 ng·h/mL; Metabolic stability in rat liver microsomes (% metabolized compound after 20 min) [4]: 22%; IC50 (CYP3A4; midazolam, read-out: CYP3A4 inhibition, IC50 with midazolam as substrate): 3000 nM; IC50 (CYP3A4; testosterone, read-out: CYP3A4 inhibition, IC50 with testosterone as substrate (T)): 10000 nM; solubility (physchem [5]; MCT pH 7.4, read-out: Solubility: MCT@pH 7.4): 599 µg/mL (≈ 532 µM); logD (physchem [6]): 4.5; Chemical stability: t/12@pH 2 [8]: ∼6 h |
| COC1C(OCC(C)C2OC(=O)C(C)C(OC3CC(C)(O)C(O)C(C)O3)C(C)C(OC3OC(C)CC(=O)C3O)C(C)CC(C)(O)C(=O)C(C)C(OC(=O)CC(C)C)C2C)OC(C)C(O)C1OC [SEQ-503, (3S,4S,5R,7S,9S,10S,11R,12S,13R)-12-[(4,5-dihydroxy-4,6-dimethyltetrahydro-2H-pyran2-yl)oxy]-7-hydroxy-2-{1-[(5-hydroxy-3,4-dimethoxy-6-methyltetrahydro-2H-pyran-2-yl)oxy]propan-2-yl}-10-[(3-hydroxy-6-methyl-4-oxotetrahydro-2H-pyran-2-yl)oxy]-3,5,7,9,11,13-hexamethyl-6,14-dioxooxacyclotetradecan-4-yl) 3-methylbutanoate] | 0.07 ×10⁻⁶ cm/s | 1.4 µM (≈ 1.35 µg/mL) | 67% | 4(K) % | /41(Q) % | 0/ND % | 22% | 0.022 µM | 522 µg/mL (≈ 542 µM) | 2.5 µM (≈ 2.41 µg/mL) | 0.021 µM | IC50 (CYP3A4; substrate not stated, read-out: CYP3A4 inhibition): > 10000 nM |
